The values below come from ChEMBL document CHEMBL3351337, “Cytotoxic 1,5-diaryl-3-oxo-1,5-pentadienes: an assessment and comparison of membrane permeability using Caco-2 and MDCK monolayers” (Bioorg Med Chem Lett, 2014).

The source made the active and inactive calls. No cut-off for these calls is given here.

In data set [1] the test system is MDCK. Description: Permeability ratio, ratio of permeability from apical to basolateral side over basolateral to apical side in MDCK cells at 50 uM over 2 hrs by isocratic reverse phase HPLC method. The data set is classed as ADME, cell-based, Canis lupus familiaris. To be noted: dog.
For data set [2], the system named is MDCK. Description: Cytotoxicity against MDCK cells assessed as reduction in cell viability. In kind it is cell-based, Canis lupus familiaris. The arrangement: concentration or dose not given beside the values. Conditions: dog.
The nature of data set [3]: Apparent permeability from basolateral to apical side in MDCK cells at 50 uM over 2 hrs by isocratic reverse phase HPLC method. The data set is classed as ADME, cell-based, Canis lupus familiaris. To be noted: dog.
Data set [4] in a line: (§1) Permeability ratio, ratio of permeability from basolateral to apical side over apical to basolateral side in MDCK cells at 50 uM over 2 hrs by isocratic reverse phase HPLC method. In kind it is ADME, cell-based, Canis lupus familiaris. To be noted: dog, MDCK.
Data set [5] in a line: Ratio of apparent permeability from apical to basolateral side in MDCK cells to apparent permeability from apical to basolateral side in human Caco2 cells. The data set is classed as ADME, cell-based. To be noted: caco-2. (Caco-2 monolayers are a common model of the intestinal barrier.)
Data set [6] in a line: Apparent permeability from apical to basolateral side in MDCK cells at 50 uM over 2 hrs by isocratic reverse phase HPLC method. To be noted: dog. The data set is classed as ADME, cell-based, Canis lupus familiaris.
Another data set concerns Caco-2. Description: Increase in permeability of lucifer yellow dye across human Caco2 cells. In kind it is functional, cell-based.
Data set [7] can be described thus: Permeability ratio, ratio of permeability from apical to basolateral side over basolateral to apical side in human Caco2 cells at 50 uM over 2 hrs by isocratic reverse phase HPLC method. The data set is classed as ADME, cell-based. To be noted: caco-2, 2 h.
Data set [8] is described as follows: Cytotoxicity against human Caco2 cells assessed as reduction in cell viability. The data set is classed as cell-based. To be noted: Caco-2.
The nature of data set [9]: Apparent permeability from basolateral to apical side in human Caco2 cells at 50 uM over 2 hrs by isocratic reverse phase HPLC method. To be noted: Caco-2. In kind it is ADME, cell-based.
Data set [10] can be described thus: Efflux ratio, ratio of permeability from basolateral to apical side over apical to basolateral side in human Caco2 cells at 50 uM over 2 hrs by isocratic reverse phase HPLC method. The data set is classed as ADME, cell-based. Conditions: Caco-2.
Data set [11] can be described thus: Ratio of apparent permeability from basolateral to apical side in MDCK cells to apparent permeability from basolateral to apical side in human Caco2 cells. The data set is classed as ADME, cell-based. To be noted: caco-2.
Data set [12] in a line: Apparent permeability from apical to basolateral side in human Caco2 cells at 50 uM over 2 hrs by isocratic reverse phase HPLC method. In kind it is ADME, cell-based. To be noted: Caco-2.
Data set [13] has as its system MDCK. Nature of the data set: Increase in permeability of lucifer yellow dye across MDCK cells. The data set is classed as functional, cell-based. Conditions: Canis lupus familiaris.
Data set [14] has as its system MDCK. The data set is described as §1. The data set is classed as ADME, cell-based, Canis lupus familiaris. Conditions: dog, mdck, 2 h, 50 µM.

As for `CCOP(=O)(OCC)N1C/C(=C\c2cc(OC)c(OC)c(OC)c2)C(=O)/C(=C/c2cc(OC)c(OC)c(OC)c2)C1`, the Ratio in the data set with MDCK [1] stood at 2.08; in data set [5], 3.68; in [7], 3.23; in data set [11], 5.73. Besides, the figures for the Activity (in the data set on MDCK [2]; in data set [8]) were 4% and “Non-toxic”, respectively. Also, the Papp B→A (usually how fast a substance crosses the layer from the basolateral side) at 2 h, 50 µM in [3] was found to be 50.3 ×10⁻⁶ cm/s; in data set [9] it was 8.82 ×10⁻⁶ cm/s. Also, the efflux ratio (commonly a quotient of directional permeabilities that is used to spot active efflux) at 2 h, 50 µM in [4] amounted to 0.48; in [10], 0.31. The Papp A→B (in general, the apparent permeability from the apical to the basolateral side of a cell layer) at 2 h, 50 µM in [6] was 105 ×10⁻⁶ cm/s; in data set [12] it was 28.5 ×10⁻⁶ cm/s. Further, in the data set with Caco-2, the outcome was inactive. Also, the result in the data set with MDCK [13] was Active.
In the case of `CCOP(=O)(OCC)N1C/C(=C\c2ccc(OC)c(OC)c2)C(=O)/C(=C/c2ccc(OC)c(OC)c2)C1`, the Ratio in the data set on MDCK [1] was found to be 2.25; in [5], 1.14; in data set [7], 6.7; in data set [11] it was 3.39. The Activity in the data set on MDCK [2] was 4%; in data set [8], “Non-toxic”. Also, the figures for the Papp B→A at 2 h, 50 µM in data set [3] and in [9] were 27.7 ×10⁻⁶ cm/s and 8.17 ×10⁻⁶ cm/s, respectively. Also, the results for the efflux ratio at 2 h, 50 µM in data set [4] and in [10] were 0.44 and 0.15, respectively. Also, the Papp A→B at 2 h, 50 µM in data set [6] stood at 62.3 ×10⁻⁶ cm/s; in data set [12], 54.7 ×10⁻⁶ cm/s. Moreover, the result in the data set on Caco-2 was inactive. For the same compound, in the data set on MDCK [13], the result was Active.
Take `O=C1/C(=C/c2ccccc2F)CNC/C1=C\c1ccccc1F`: the Ratio in the data set on MDCK [1] is given as 9.83; in data set [5] it was 1; in data set [7], 5.88; in data set [11], 0.6. Further, the figures for the Activity (in the data set with MDCK [2]; in data set [8]) were 4% and “Non-toxic”, respectively. In addition, the Papp B→A at 2 h, 50 µM was 0.36 ×10⁻⁶ cm/s in [3] and 0.6 ×10⁻⁶ cm/s in [9]. Moreover, the values for the efflux ratio at 2 h, 50 µM in data set [4] and in data set [10] were 0.1 and 0.17, respectively. The Papp A→B at 2 h, 50 µM in data set [6] is 3.54 ×10⁻⁶ cm/s; in data set [12], 3.53 ×10⁻⁶ cm/s. The result in the data set on Caco-2 was inactive. Also, the outcome in the data set with MDCK [13] was Active.
`O=C1/C(=C/c2cccc(O)c2)CNC/C1=C\c1cccc(O)c1`: the Ratio with MDCK [1] came to 3.35; in [5] it was 1.42; in [7] it was 2.64; in [11], 1.12. Moreover, the results for the Activity (in the data set with MDCK [2]; in data set [8]) were 4% and “Non-toxic”, respectively. Also, the Papp B→A at 2 h, 50 µM in data set [3] turned out to be 6.53 ×10⁻⁶ cm/s; in data set [9] it was 5.83 ×10⁻⁶ cm/s. Moreover, the efflux ratio at 2 h, 50 µM in [4] is 0.3; in data set [10], 0.38. Moreover, the Papp A→B at 2 h, 50 µM was found to be 21.9 ×10⁻⁶ cm/s in data set [6] and 15.4 ×10⁻⁶ cm/s in data set [12]. Also, the outcome in the data set on Caco-2 was inactive. For the same compound, the outcome in the data set on MDCK [13] was Active.
Turning to `O=C(/C=C/c1ccccc1)c1ccccc1` [CHALCONE], the Ratio in the data set on MDCK [1] stood at 3.05; in data set [5] it was 1.33; in [7], 2.75; in data set [11], 1.2. The Activity in the data set on MDCK [2] was 4%; in data set [8], “Non-toxic”. For the same compound, the Papp B→A at 2 h, 50 µM in data set [3] came to 1.26 ×10⁻⁶ cm/s; in [9], 1.05 ×10⁻⁶ cm/s. Besides, the figures for the efflux ratio at 2 h, 50 µM in data set [4] and in data set [10] were 0.33 and 0.36, respectively. Besides, the Papp A→B at 2 h, 50 µM in [6] is 3.84 ×10⁻⁶ cm/s; in [12], 2.89 ×10⁻⁶ cm/s. In addition, the outcome with Caco-2 was inactive. Also, the result in the data set on MDCK [13] was Active.
Take `COc1ccc(/C=C2\CNC/C(=C\c3ccc(OC)c(OC)c3)C2=O)cc1OC`: the Ratio in the data set on MDCK [1] is listed as 2.55; in data set [5] it was 1.54; in data set [7] it was 3.5; in data set [11], 2.11. The Activity in the data set on MDCK [2] is 4%; in data set [8] it was “Non-toxic”. In addition, the Papp B→A at 2 h, 50 µM came to 8.7 ×10⁻⁶ cm/s in data set [3] and 4.12 ×10⁻⁶ cm/s in data set [9]. In addition, the results for the efflux ratio at 2 h, 50 µM in [4] and in data set [10] were 0.39 and 0.29, respectively. Besides, the figures for the Papp A→B at 2 h, 50 µM in data set [6] and in data set [12] were 22.2 ×10⁻⁶ cm/s and 14.4 ×10⁻⁶ cm/s, respectively. In addition, the result in the data set on Caco-2 was inactive. The outcome in the data set with MDCK [13] was Active.
With `CN(C)c1ccc(/C=C/C(=O)/C=C/c2ccc(N(C)C)cc2)cc1`, the Ratio came out at 1.24 with MDCK [1]; 0.81 in the data set with MDCK [14]; 2.34 in data set [5]; 1.2 in data set [7]; 2.27 in data set [11]. For the same compound, the Activity in the data set with MDCK [2] was 4%; in data set [8], “Non-toxic”. Also, the values for the Papp B→A at 2 h, 50 µM in [3] and in data set [9] were 15.9 ×10⁻⁶ cm/s and 7.02 ×10⁻⁶ cm/s, respectively. Also, the Papp A→B at 2 h, 50 µM amounted to 19.7 ×10⁻⁶ cm/s in data set [6] and 8.42 ×10⁻⁶ cm/s in data set [12]. Moreover, in the data set on Caco-2, the outcome was inactive. For the same compound, the efflux ratio at 2 h, 50 µM in data set [10] came out at 0.83. Moreover, in the data set with MDCK [13], the result was Active.
Turning to `COc1ccccc1/C=C1\CNC/C(=C\c2ccccc2OC)C1=O`, the Ratio with MDCK [1] is 2.06; in data set [5], 0.88; in data set [7], 3.13; in [11] it was 1.34. Further, the Activity in the data set on MDCK [2] is recorded as 4%; in [8], “Non-toxic”. For the same compound, the values for the Papp B→A at 2 h, 50 µM in [3] and in [9] were 13.9 ×10⁻⁶ cm/s and 10.4 ×10⁻⁶ cm/s, respectively. Moreover, the efflux ratio at 2 h, 50 µM in [4] is 0.48; in data set [10], 0.32. For the same compound, the values for the Papp A→B at 2 h, 50 µM in data set [6] and in data set [12] were 28.7 ×10⁻⁶ cm/s and 32.5 ×10⁻⁶ cm/s, respectively. Further, the result in the data set on Caco-2 was inactive. Moreover, the outcome in the data set with MDCK [13] was Active.
`CCOC(=O)c1ccc(/C=C2\CNC/C(=C\c3ccc(C(=O)OCC)cc3)C2=O)cc1`: the Ratio in the data set on MDCK [1] turned out to be 2.73; in data set [5], 0.96; in data set [7] it was 2.85; in [11], 1. The Activity in the data set with MDCK [2] was 4%; in data set [8], “Non-toxic”. Also, the Papp B→A at 2 h, 50 µM in data set [3] and in data set [9] was 0.99 ×10⁻⁶ cm/s throughout. Also, the efflux ratio at 2 h, 50 µM amounted to 0.37 in data set [4] and 0.35 in [10]. In addition, the Papp A→B at 2 h, 50 µM in data set [6] came out at 2.7 ×10⁻⁶ cm/s; in data set [12], 2.82 ×10⁻⁶ cm/s. In addition, the outcome in the data set on Caco-2 was inactive. Further, the outcome in the data set with MDCK [13] was Active.
In the case of `COc1cccc(/C=C2\CNC/C(=C\c3cccc(OC)c3OC)C2=O)c1OC`, the Ratio came out at 2.34 with MDCK [1], 0.63 in data set [5], 3.24 in data set [7] and 0.87 in data set [11]. Moreover, the Activity is 4% with MDCK [2] and “Non-toxic” in data set [8]. For the same compound, the Papp B→A at 2 h, 50 µM in [3] was determined as 6.28 ×10⁻⁶ cm/s; in [9], 7.22 ×10⁻⁶ cm/s. Further, the efflux ratio at 2 h, 50 µM is 0.43 in data set [4] and 0.31 in [10]. For the same compound, the results for the Papp A→B at 2 h, 50 µM in [6] and in data set [12] were 14.7 ×10⁻⁶ cm/s and 23.4 ×10⁻⁶ cm/s, respectively. The result in the data set with Caco-2 was inactive. In the data set on MDCK [13], the outcome was Active.
